Patent publication US20110236359A1 (priority 2007, published 2011)
≈ marks a conversion by molar mass, not a printed value. Read-outs that look alike come from different tables or passages of the source. Positions of bridges follow the written chain, without caps; N, C: chain ends. Non-standard residues stand in square brackets, D forms with d. Residues, ends and D or L forms follow the SMILES beside them. *: point of attachment. Ileψ(thiazoline)Cys = CC[C@H](C)[C@H](N)C1=N[C@H](C(=O)*)CS1; dOrn = NCCC[C@@H](N)C(=O)O

Columns and labels:
[1] = test system: Lactococcus lactis subsp. lactis MM19; test: Antibiotic MIC plates (resistance profile); format: cell-based; conditions: MM19, median of two repetitions
Excerpt: (§1) The protocol was adapted from Delgado et al. (2005). Minimum Inhibitory Concentration (MIC) Plate (# GPN3F) and Anaerobe MIC Plate (# AN02B) were used to determine the antibiotic sensitivity and resistance profile of MM19 and MM33 according to the instructions of the manufacturer (Trek Diagnostic Systems; Nova Century, Burlington, ON, Canada).
(§2) Lactococcus lactis subsp. lactis MM19, Pediococcus acidilactici MM33 and Lactobacillus rhamnosus GG (ATCC 53103) from frozen glycerol stock were first inoculated in Lactobacilli MRS and incubated at 37° C. for 18 h. 100 μl of this culture were further incubated under the same conditions. This second culture was then inoculated on a MRS agar plate and incubated at 37° C. for 48 h under anaerobic conditions using GasPak Plus system (BD BBL, Sparks, Md., USA).

[2] = test system: Lactobacillus rhamnosus GG (ATCC 53103); test: Antibiotic MIC plates (resistance profile); format: cell-based; conditions: median of two repetitions
Excerpt: as §1, §2

[3] = test system: Pediococcus acidilactici MM33; test: Antibiotic MIC plates (resistance profile); format: cell-based; conditions: median of two repetitions
Excerpt: as §1, §2

[4] = test system: vancomycin-resistant Enterococcus (VRE); test: VRE intestinal colonization (infection) model; format: in vivo, CF-1 mice
Experimental: The tubes containing fresh stool samples, collected from individual mice, were weighted, so that the weight of the feces could be deduced. Then, all the feces were diluted in […] of sterile saline, homogenized with a pestle, and serially diluted 10-fold in 0.1% peptone water. Finally, […] of each dilution were inoculated on the following media: MRS agar for detection of total lactic acid bacteria (LAB), Rogosa SL agar for selective detection of Lactobacillus spp., Reinforced Clostridium Medium (RCM) for quantification of total anaerobic and mesophilic bacteria, Baird-Parker agar (BPA) for selective detection of Staphylococcus spp., MacConkey agar for selective enumeration of Enterobacteriaceae, Enterococcosel agar for selective quantification of total Enterococcus spp. and finally Enterococcosel agar+20 μg/ml of vancomycin (Sigma) for detection and enumeration of VRE. A volume of 100 μl of the undiluted sample was also plated. MRS, Rogosa and RCM plates were incubated in anaerobic jars at 37° C. for 72 h while BPA, MacConkey and both Enterococcosel agar plates were incubated under aerobic conditions at 37° C. for 48 h. When negative results were obtained for Enterococcosel agar+20 μg/ml of vancomycin after 48 h of incubation, the plates were allowed to incubate for another 24 h. For statistical purposes, a value in CFU per gram that was based upon the weight of individual specimens was assigned for faeces without microorganisms.
A VRE intestinal colonization (infection) model was adapted from Donskey et al. 25-30 g CF-1 female mice (Charles River) were used. Daily subcutaneous administration of clindamycin (1.4 mg/d) for five days was used to disrupt the intestinal microbiota to induce VRE infection. Three days after the end of clindamycin administration, gastric inoculation of 250 μl of an overnight culture of VRE in BHI broth was used to infect the mice. Approximately 10^8 viable VRE was administered to the mice. Since the beginning of the antibiotic therapy, all groups of LAB-treated mice received once daily […] of 10^10 CFU/ml of Lc. lactis subsp. lactis MM19, P. acidilactici MM33 or P. acidilactici MM33A previously washed twice in sterile PBS. The mice received the LAB until the eighth day after the infection. Bacitracin (Sigma) antibiotic was administrated orally once daily during three days following the mice infection with VRE as 600 units/d diluted in […] of sterile PBS. This treatment was then discontinued and replaced by PBS. Stool samples were collected before the antibiotic administration and 1, 3, 6, 8 and 12 days after the VRE infection. Fecal concentrations of total culturable VRE were analyzed using selective media. This experiment was repeated twice using a total of eight mice per experimental group.

[5] = Lactococcus lactis, ANO2 plate, read-out: MIC
[6] = Lacticaseibacillus rhamnosus, ATCC53103, L. rhamnosus GG, ANO2 plate, read-out: MIC
[7] = Pediococcus acidilactici, MM33, MM33, ANO2 plate, read-out: MIC
[8] = Lactococcus lactis, GPN3F plate, read-out: MIC
[9] = Lacticaseibacillus rhamnosus, ATCC53103, L. rhamnosus GG, GPN3F plate, read-out: MIC
[10] = Pediococcus acidilactici, MM33, MM33, GPN3F plate, read-out: MIC

Compound	MIC [1, 5] [µg/mL]	MIC [2, 6] [µg/mL]	MIC [3, 7] [µg/mL]	MIC [1, 8] [µg/mL]	MIC [2, 9] [µg/mL]	MIC [3, 10] [µg/mL]	other results
CO[C@@]1(NC(=O)Cc2cccs2)C(=O)N2C(C(=O)O)=C(COC(N)=O)CS[C@@H]21 [FOX, Cefoxitin]	> 32	> 32	> 32	–	–	–	–
CC[C@H](C)[C@H](N)C1=N[C@H](C(=O)N[C@@H](CC(C)C)C(=O)N[C@H](CCC(=O)O)C(=O)N[C@H](C(=O)N[C@H]2CCCCNC(=O)[C@H](CC(N)=O)NC(=O)[C@@H](CC(=O)O)NC(=O)[C@H](Cc3cnc[nH]3)NC(=O)[C@@H](Cc3ccccc3)NC(=O)[C@H]([C@@H](C)CC)NC(=O)[C@@H](CCCN)NC2=O)[C@@H](C)CC)CS1 [Bacitracin] ({Ileψ(thiazoline)Cys}-L[dE]IK[dOrn]I[dF]H[dD]N; lactam 4-C)	–	–	–	–	–	–	Mice colonized with VRE (%) ([4]; 0 days after VRE infection): 0%; Mice colonized with VRE (%) ([4]; 1 day after VRE infection): 100%; Mice colonized with VRE (%) ([4]; 3 days after VRE infection): 0%; Mice colonized with VRE (%) ([4]; 6 days after VRE infection): 100%; Mice colonized with VRE (%) ([4]; 8 days after VRE infection): 100%; Mice colonized with VRE (%) ([4]; 12 days after VRE infection): 100%; VRE population (in words) ([4]; after the treatment was discontinued): reappeared; Level of VRE in feces (in words) ([4]; day 3, 600 units/d orally for three days after infection): undetectable level
CC1(C)S[C@@H]2[C@H](NC(=O)[C@H](N)c3ccccc3)C(=O)N2[C@H]1C(=O)O [AMP, Ampicillin]	< 0.5	1 (≈ 2.86 µM)	4 (≈ 11.4 µM)	0.12 to 0.25 (≈ 0.343 to 0.715 µM)	1 (≈ 2.86 µM)	2 (≈ 5.72 µM)	–
Quinupristin/Dalfopristin [SYN]	–	–	–	–	–	–	MIC ([1]; GPN3F plate): 4 µg/mL; MIC ([2]; L. rhamnosus GG, GPN3F plate): 1 to 2 µg/mL; MIC ([3]; MM33, GPN3F plate): 1 µg/mL
[H]/N=C(/N)N[C@H]1[C@H](O)[C@@H](O)[C@H](O[C@@H]2O[C@@H](C)[C@](O)(C=O)[C@H]2O[C@@H]2O[C@@H](CO)[C@H](O)[C@@H](O)[C@@H]2NC)[C@@H](N/C(N)=N\[H])[C@@H]1O [STR, Streptomycin]	–	–	–	< 1000	< 1000	< 1000	–
CC(=O)NC[C@H]1CN(c2ccc(N3CCOCC3)c(F)c2)C(=O)O1 [LZD, Linezolid]	–	–	–	2 (≈ 5.93 µM)	1 to 2 (≈ 2.96 to 5.93 µM)	4 to 8 (≈ 11.9 to 23.7 µM)	–
CC1(C)S[C@@H]2[C@H](NC(=O)[C@H](NC(=O)N3CCN(S(C)(=O)=O)C3=O)c3ccccc3)C(=O)N2[C@H]1C(=O)O [MEZ, Mezlocillin]	< 4	< 4	8 (≈ 14.8 µM)	–	–	–	–
CCC[C@@H]1C[C@@H](C(=O)N[C@@H]([C@H]2O[C@H](SC)[C@H](O)[C@@H](O)[C@H]2O)[C@H](C)Cl)N(C)C1 [CLI, Clindamycin]	0.5 (≈ 1.18 µM)	0.5 (≈ 1.18 µM)	< 0.25	0.25 (≈ 0.588 µM)	< 0.12	< 0.12	–
C[C@@H](O)[C@H]1C(=O)N2C(C(=O)O)=C(SCCN=CN)C[C@H]12 [IMI, Imipenem]	0.25 (≈ 0.835 µM)	2 (≈ 6.68 µM)	0.5 (≈ 1.67 µM)	–	–	–	–
CO[C@@]1(NC(=O)C2SC(=C(C(N)=O)C(=O)O)S2)C(=O)N2C(C(=O)O)=C(CSc3nnnn3C)CS[C@@H]21 (stereo partly drawn) [TANS, Cefotetan]	> 64	> 64	> 64	–	–	–	–
Gentamicin	–	–	–	–	–	–	MIC ([1]; GPN3F plate): 2 to 4 µg/mL; MIC ([2]; L. rhamnosus GG, GPN3F plate): <2 µg/mL; MIC ([3]; MM33, GPN3F plate): <2 µg/mL
Amoxicillin/Clavulanic acid [AUG]	–	–	–	–	–	–	MIC ([3]; MM33, ANO2 plate): 4/2
CO/N=C(\C(=O)N[C@@H]1C(=O)N2C(C(=O)O)=C(CSc3nc(=O)c(=O)[nH]n3C)CS[C@H]12)c1csc(N)n1 [AXO, Ceftriaxone]	–	–	–	< 8	32 to 64 (≈ 57.7 to 115 µM)	16 (≈ 28.9 µM)	–
Piperacillin/Tazobactam [P/T]	–	–	–	–	–	–	MIC ([1]; ANO2 plate): 2/4; MIC ([2]; L. rhamnosus GG, ANO2 plate): 1/4; MIC ([3]; MM33, ANO2 plate): 8/4
